Experimental data from patent publication US20170246210A1, “EX-VIVO INDUCED REGULATORY MESENCHYMAL STEM CELLS OR MYELOID-DERIVED SUPPRESSOR CELLS AS IMMUNE MODULATORS” (HADASIT MEDICAL RESEARCH SERVICES & DEVELOPMENT LTD, priority 2014, published 2017).

Legend:
mMSCs [1] = experiment: qPCR expression analysis in treated mouse MSCs; assay type: cell-based; conditions: for IL-6 mRNA expression: combination treatments, with/without 10 μM CH-223191; for COX2 mRNA expression: qPCR, combinations of TGFβ, IFNγ, kynurenine
Procedure: MSCs isolation and culture. Mouse MSCs (mMSCs) were obtained from the bone marrow (BM) of C57BL/6 mice. BM cells were cultured at a concentration of 1*10^6 cells/ml in Mesencult basal medium supplemented with MSC stimulatory supplements (StemCell Technologies, Vancouver, BC), at 37° C. with 10% CO2. After 2-3 passages, the cells were harvested and CD11b^+ cells were depleted by EasySep® cell separation kit (StemCell Technologies, Vancouver, BC). Cells from 3 different lines were used for experiments after 5-20 passages.
(§1) TCT MSCs were treated with 40pM hTGFβ (PeproTech, Israel) for 24 h, and then with a cocktail of 40 pM hTGFβ, 100 ng/ml h/mIFNγ (PeproTech, Israel) and 150 μM Kynurenine (Sigma, Switzerland) for an additional 24 h before they were used for experiments.
RNA extraction and PCR analysis. Total cellular RNA was extracted using RNeasy® Mini Kit columns (QIAGEN) according to the manufacturer's protocols. 1 μg of total RNA was used to synthesize cDNA using High-Capacity cDNA kit (Applied Biosystems) following the supplier's instructions. Detection of transcript levels of iNOS, IDO, COX2, IL-6, CYP1a1 and CYP1b1, were performed using the TaqMan Gene Expression Assay Kit (Applied Biosystems), using HPRT-1 as a reference. All primers were purchased from Applied Biosystems. Real-Time PCR reactions were conducted using StepOne Plus (Applied Biosystems). Data was analyzed by StepOne Software version 2.2 (Applied Biosystems). […]

[2] = target: T1, aryl hydrocarbon receptor (AhR) (Homo sapiens, UniProt P35869); experiment: AhR activation in human MSCs (qPCR of AhR dependent gene Cyp1a1); assay type: cell-based
T1 construct: Mouse and human MSCs were obtained from C57BL/6 mice and healthy donor BM respectively; endogenous in cells; host or cells: primary human MSCs from healthy donor bone marrow
T1 sequence (P35869 11-848): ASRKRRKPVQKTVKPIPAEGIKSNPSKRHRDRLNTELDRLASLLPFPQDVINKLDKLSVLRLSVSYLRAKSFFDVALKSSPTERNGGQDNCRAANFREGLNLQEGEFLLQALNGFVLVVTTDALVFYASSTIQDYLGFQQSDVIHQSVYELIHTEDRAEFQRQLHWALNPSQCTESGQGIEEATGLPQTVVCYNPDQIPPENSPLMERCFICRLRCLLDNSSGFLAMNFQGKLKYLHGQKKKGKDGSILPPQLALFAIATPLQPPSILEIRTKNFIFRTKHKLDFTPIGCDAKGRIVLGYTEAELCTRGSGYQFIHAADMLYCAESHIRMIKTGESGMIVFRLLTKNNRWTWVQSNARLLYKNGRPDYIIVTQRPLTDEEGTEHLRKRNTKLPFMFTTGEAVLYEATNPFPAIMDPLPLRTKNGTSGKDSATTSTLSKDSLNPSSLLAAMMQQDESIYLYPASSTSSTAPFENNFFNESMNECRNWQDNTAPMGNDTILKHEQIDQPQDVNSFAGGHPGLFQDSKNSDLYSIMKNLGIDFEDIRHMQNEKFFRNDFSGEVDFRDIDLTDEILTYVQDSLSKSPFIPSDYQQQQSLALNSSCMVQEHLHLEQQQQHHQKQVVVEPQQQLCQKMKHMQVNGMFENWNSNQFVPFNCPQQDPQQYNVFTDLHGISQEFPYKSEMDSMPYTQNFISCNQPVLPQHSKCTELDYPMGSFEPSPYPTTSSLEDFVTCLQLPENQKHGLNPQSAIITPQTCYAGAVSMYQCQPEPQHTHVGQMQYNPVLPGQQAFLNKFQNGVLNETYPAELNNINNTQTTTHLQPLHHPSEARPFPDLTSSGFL
Procedure: (§2) RNA extraction and PCR analysis. Total cellular RNA was extracted using RNeasy® Mini Kit columns (QIAGEN) according to the manufacturer's protocols. 1 μg of total RNA was used to synthesize cDNA using High-Capacity cDNA kit (Applied Biosystems) following the supplier's instructions. Detection of transcript levels of iNOS, IDO, COX2, IL-6, CYP1a1 and CYP1b1, were performed using the TaqMan Gene Expression Assay Kit (Applied Biosystems), using HPRT-1 as a reference. All primers were purchased from Applied Biosystems. Real-Time PCR reactions were conducted using StepOne Plus (Applied Biosystems). Data was analyzed by StepOne Software version 2.2 (Applied Biosystems).
(§3) To evaluate whether kynurenine activates AhR in mMSCs, the mRNA of treated/non-treated MSCs were tested for the expression level of two AhR dependent genes, Cyp1a1 and Cyp1b1. […] To ascertain that the up-regulation of these genes is AhR dependent, MSCs were treated with kynurenine for 24 hours in the presence/absence of the AhR antagonist CH-223191. The up-regulation of Cyp1a1 by kynurenine is inhibited in the presence of the antagonist both in mouse and human MSCs (previous FIGS. 9B, C).

[3] = target: T2, aryl hydrocarbon receptor (AhR) (Mus musculus, UniProt P30561); experiment: AhR activation in mouse MSCs (qPCR of AhR dependent genes Cyp1a1, Cyp1b1); assay type: cell-based
T2 construct: Mouse and human MSCs were obtained from C57BL/6 mice and healthy donor BM respectively; endogenous in cells; host or cells: primary mouse MSCs from C57BL/6 mice
T2 sequence (P30561 10-805 limits assumed): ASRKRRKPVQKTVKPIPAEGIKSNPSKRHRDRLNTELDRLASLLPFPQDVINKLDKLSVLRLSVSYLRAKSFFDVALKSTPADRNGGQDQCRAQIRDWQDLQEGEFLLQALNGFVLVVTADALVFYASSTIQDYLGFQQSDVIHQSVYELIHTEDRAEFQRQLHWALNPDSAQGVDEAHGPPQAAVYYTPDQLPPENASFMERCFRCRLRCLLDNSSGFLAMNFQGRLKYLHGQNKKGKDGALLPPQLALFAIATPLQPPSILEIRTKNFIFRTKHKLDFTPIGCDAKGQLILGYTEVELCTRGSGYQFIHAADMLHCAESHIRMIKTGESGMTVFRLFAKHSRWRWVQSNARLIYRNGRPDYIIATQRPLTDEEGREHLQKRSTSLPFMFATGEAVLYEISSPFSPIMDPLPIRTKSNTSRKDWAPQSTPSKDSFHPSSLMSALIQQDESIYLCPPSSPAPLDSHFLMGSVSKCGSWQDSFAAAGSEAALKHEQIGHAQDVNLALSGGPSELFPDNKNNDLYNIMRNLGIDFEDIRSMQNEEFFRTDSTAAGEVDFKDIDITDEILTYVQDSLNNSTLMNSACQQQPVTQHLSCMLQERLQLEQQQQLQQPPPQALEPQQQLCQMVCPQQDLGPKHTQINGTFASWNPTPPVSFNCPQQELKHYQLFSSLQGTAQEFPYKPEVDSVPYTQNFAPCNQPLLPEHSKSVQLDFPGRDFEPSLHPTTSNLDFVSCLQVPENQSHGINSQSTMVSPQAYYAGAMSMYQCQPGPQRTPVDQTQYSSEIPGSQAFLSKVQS
Procedure: as §2, §3

hMSCs [4] = experiment: qPCR expression analysis in treated human MSCs; assay type: cell-based; conditions: for upregulation of COX2 by kynurenine: human MSCs, presence or absence of 10 μM CH-223191
Procedure: Human MSCs (hMSCs). Bone marrow for hMHC was obtained from 17 adult healthy donors, males and females, following informed consent and under institutional Helsinki approval; hMSCs were cultured as previously described and the cells were used for experiments after 3-6 passages (Resnick, Barkats et al. 2013). TCT MSCs were treated with 40pM hTGFβ (PeproTech, Israel) for 24 h, and then with a cocktail of 40 pM hTGFβ, 100 ng/ml h/mIFNγ (PeproTech, Israel) and 150 μM Kynurenine (Sigma, Switzerland) for an additional 24 h before they were used for experiments. RNA extraction and PCR analysis. Total cellular RNA was extracted using RNeasy® Mini Kit columns (QIAGEN) according to the manufacturer's protocols. 1 μg of total RNA was used to synthesize cDNA using High-Capacity cDNA kit (Applied Biosystems) following the supplier's instructions. Detection of transcript levels of iNOS, IDO, COX2, IL-6, CYP1a1 and CYP1b1, were performed using the TaqMan Gene Expression Assay Kit (Applied Biosystems), using HPRT-1 as a reference. All primers were purchased from Applied Biosystems. Real-Time PCR reactions were conducted using StepOne Plus (Applied Biosystems). Data was analyzed by StepOne Software version 2.2 (Applied Biosystems).

mMSCs [5] = experiment: FACS analysis of surface expression on mouse MSCs; assay type: cell-based; conditions: for EGFR surface expression: kynurenine 5 hours, with/without 10 μM CH-223191 pre-treatment 16 hours; for MHC I expression: FACS
Procedure: as §1
(§4) FACS analysis. The phenotype of the MSCs was analyzed by FACS using anti-CD29-PB and anti-hCD45-FITC (Biolegend), anti-CD11b-APC, anti-CD44-PE and anti-mCD45-FITC (SouthernBiotech), anti-CD105-PB, anti-CD73-PE, anti-CD90-PE and anti-Sca1-PE (eBioscience), anti-CD44-V450, anti-CD105-APC, anti-HLA DR-APC and anti-HLA ABC-PE (BD Bioscience) antibodies. The expression level of PD-L1 in mMSCs was analyzed by FACS with anti-B7-H1-PE (PD-L1) (eBioscience). To analyze EGFR internalization in kynurenine treated mMSCs, mMSCs were cultured in the presence of 10 μM CH223191 (Merck-Millipore) for 16 hours and then kynurenine was added for an additional 5 hours. EGFR expression was analyzed by FACS using anti-EGFR-PE (Bioss). FACS was performed using the aMACSQuant analyzer (Miltenyi Biotech, Germany) and the data was analyzed using FCS Express V3 software.

mMSCs [6] = experiment: ELISA on supernatants of treated mMSCs; assay type: cell-based, mouse
Procedure: ELISA. Quantification of PGE2 in supernatants collected from treated mMSCs and from co-cultures with splenocytes after 72 hours of culture, was performed by competitive enzyme-linked immunosorbent assay (ELISA) technique using a commercially available ELISA kit (R&D Systems, Minn., USA). IL-6, IL-17A and IFNγ in supernatants collected from treated mMSCs and/or from co-cultures with splenocytes/PBMCs were quantified using the ELISA Ready SET Go kits (eBioscience, San Diego, Calif., USA), according to the manufacturer's instructions. All determinations were made in triplicates.

hMSCs [7] = experiment: FACS analysis of surface expression on human MSCs; assay type: cell-based; conditions: IFNγ induced
Procedure: as §1, §4

[8] = mouse MSCs, presence or absence of 10 μM CH-223191
[9] = kynurenine 24 hours, 10 μM CH-223191
[10] = murine MSCs, kynurenine alone vs non-treated

Q: Which “IL-6 mRNA expression” value (mMSCs [1]; mMSCs) does the source give for Cc1ccccc1N=Nc1ccc(NC(=O)c2ccnn2C)c(C)c1 [CH-223191] here?
A: partially reversed the effects of kynurenine

Q: And the “enhanced expression of LIF” value (mMSCs [1]; [8])?
A: reversed

Q: What about the “upregulation of COX2 by kynurenine” value (mMSCs [1]; [8]) of the same molecule?
A: reversed

Q: What about the “up-regulation of Cyp1a1 by kynurenine in presence of antagonist” value [2, 9] of the same molecule?
A: inhibited

Q: What about the “up-regulation of Cyp1a1 by kynurenine in presence of antagonist” value [3, 9] of the same molecule?
A: inhibited

Q: What about the “upregulation of COX2 by kynurenine” value (hMSCs [4]) of the same molecule?
A: reversed

Q: What about the EGFR surface expression (mMSCs [5]) of the same molecule?
A: restored EGFR expression on the cell surface

Q: Which “IL-6 mRNA expression” value (mMSCs [1]; mMSCs) does the source give for Nc1ccccc1C(=O)CC(N)C(=O)O (stereo not shown) [kynurenine] here?
A: restricted this elevation

Q: And the “HO-1 mRNA expression” value (mMSCs [1]; mMSCs, kynurenine added to the DCT)?
A: significantly up-regulated

Q: What about the “COX2 mRNA expression” value (mMSCs [1]; mMSCs) of the same molecule?
A: significant additive effects on the up-regulation

Q: What about the “upregulation of COX2 by kynurenine” value (mMSCs [1]; [8]) of the same molecule?
A: AhR dependent

Q: What about the COX2 expression (mMSCs [1]; [10]) of the same molecule?
A: no effect

Q: And the IDO expression (mMSCs [1]; [10])?
A: no effect

Q: What about the IL6 expression (mMSCs [1]; [10]) of the same molecule?
A: no effect

Q: What about the iNOS expression (mMSCs [1]; [10]) of the same molecule?
A: no effect

Q: What about the IL-6 secretion (mMSCs [6]; mMSCs culture medium) of the same molecule?
A: restricted this elevation

Q: What about the AhR activation [2] of the same molecule?
A: activates

Q: And the AhR activation [3]?
A: activates

Q: What about the “COX2 mRNA expression” value (hMSCs [4]; hMSCs, addition of kynurenine) of the same molecule?
A: significantly elevated

Q: And the “upregulation of COX2 by kynurenine” value (hMSCs [4])?
A: AhR dependent

Q: And the EGFR surface expression (mMSCs [5])?
A: significantly reduced

Q: Which results are given for IFNγ?
A: COX2 mRNA expression (mMSCs [1]; mMSCs): no effect; PGE2 secretion (mMSCs [6]; mMSCs supernatants): no effect; MHC I expression (mMSCs [5]): induces up-regulation

Q: What does the source list for TGFβ?
A: COX2 mRNA expression (mMSCs [1]; mMSCs): increased; MHC I expression (hMSCs [7]): reduced the IFNγ induced expression; MHC II expression (hMSCs [7]): reduced the IFNγ induced expression; MHC I expression (mMSCs [5]): reduced the elevated expression
